Assay results: patent US9409952B2, “Peptide-compound cyclization method” (Chugai Seiyaku Kabushiki Kaisha, priority 2011, dated 2016)
Like-named read-outs stand apart in the source and are kept apart here. Starred links: 1 amine or outer side, 2 acyl side, 3 side chain; linkers in the order of their positions; H or OH if unused. Positions of bridges follow the written chain, without caps; N, C: chain ends. Non-standard residues stand in square brackets, D forms with d. Residues, ends and D or L forms follow the SMILES beside them. *: point of attachment. Phe(4-(CH2)5CO) = O=C([C@H](Cc1ccc(CCCCCC(=O)[*:3])cc1)N[*:1])[*:2]; Phe(3-(CH2)4CO) = O=C([C@H](Cc1cccc(CCCCC(=O)[*:3])c1)N[*:1])[*:2]; hhPhe = N[C@@H](CCCc1ccccc1)C(=O)O; NMeF = CN[C@@H](Cc1ccccc1)C(=O)O; NMeGABA = CN(CCCC(=O)[*:2])[*:1]; NMeI = CC[C@H](C)[C@H](NC)C(=O)O; NMeβAla = CN(CCC(=O)[*:2])[*:1]; NMeL = CN[C@@H](CC(C)C)C(=O)O; NMeV = CN[C@H](C(=O)O)C(C)C; NMeS = CN[C@@H](CO)C(=O)O; NMeA = CN[C@@H](C)C(=O)O; Piperidide = C1CCN(*)CC1; dNMeA = CN[C@H](C)C(=O)O; β3hA = C[C@H](N)CC(=O)O; Sar = CNCC(=O)O; tBu = CC(C)(C)*

Assays:
[1] = PAMPA (parallel artificial membrane permeability assay); type: in vitro ADME; settings: PAMPA
Procedure, shortened: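 Artificial membrane was 10% (w/v) egg lecithin plus 0.5% (w/v) cholesterol in dodecane on a PVDF filter. A 10 mM DMSO stock was added at 0.5% (v/v) to donor buffer (50 mM MOPSO, pH 6.5, 5.0% glycocholic acid). After 18 h at 37 °C, LC/MS or LC/UV gave donor and acceptor levels for Pe.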

[2] = Metabolic stability in human hepatic microsome; type: in vitro ADME; settings: microsomes
[3] = membrane permeation rate (Pe), 50 mM MOPSO buffer pH 6.5 with 5.0% glycocholic acid, 37° C., 18 hours, read-out: iPAMPA Pe
[4] = pH 7.4, human hepatic microsome, NADPH(+), read-out: CL NADPH(+)

| Structure (SMILES) | Papp at 18 hours, 50 µM [1, 3] [×10⁻⁶ cm/s] | microsomal CLint at 1 uM [2, 4] [µL/min/mg] | Papp at 18 hours, 50 µM ([1]; pH 6.5) [×10⁻⁶ cm/s] | microsomal CLint at 1 uM ([2]; human, pH 7.4, CL NADPH(+)) [µL/min/mg] |
| --- | --- | --- | --- | --- |
| CC(C)C[C@@H]1NC(=O)[C@H]([C@@H](C)O)NC(=O)[C@H](CC(C)C)N(C)C(=O)CN(C)C(=O)[C@H](Cc2ccccc2)N(C)C(=O)[C@H](C(C)C)NC(=O)C[C@@H](C(=O)N2CCCCC2)NC1=O [DP-720] (V[NMeF][Sar][NMeL]TLD-Piperidide; lactam N-7) | 16 | 62 |  |  |
| CC(C)C[C@@H]1NC(=O)CCCCCc2ccc(cc2)C[C@@H](C(=O)N2CCCCC2)NC(=O)[C@H](Cc2ccccc2)N(C)C(=O)[C@H](CC(C)C)N(C)C(=O)CN(C)C(=O)[C@H]([C@@H](C)O)NC(=O)[C@H](C)N(C)C(=O)[C@H](C(C)C)N(C)C(=O)[C@H](C)NC(=O)[C@H](CC(C)C)N(C)C(=O)[C@H](Cc2ccccc2)N(C)C1=O [DP-881] (L[NMeF][NMeL]A[NMeV][NMeA]T[Sar][NMeL][NMeF][Phe(4-(CH2)5CO)]-Piperidide; lactam N-11) | 6.8 | 83 |  |  |
| CC[C@H](C)[C@H]1C(=O)N[C@H](C(=O)N2CCCCC2)CC(=O)N[C@@H](C)C(=O)N(C)[C@@H](Cc2ccccc2)C(=O)N(C)[C@@H](CC(C)C)C(=O)N[C@@H]([C@@H](C)O)C(=O)N(C)CC(=O)N(C)[C@@H](CC(C)C)C(=O)N[C@@H](COC(C)(C)C)C(=O)N1C [DP-37] (A[NMeF][NMeL]T[Sar][NMeL]S(tBu)[NMeI]D-Piperidide; lactam N-9) |  |  | 31 | 156 |
| CC(C)C[C@@H]1NC(=O)[C@H](CC(C)C)N(C)C(=O)[C@H](Cc2ccccc2)N(C)C(=O)CNC(=O)[C@H]([C@@H](C)O)NC(=O)[C@H](CC(C)C)N(C)C(=O)[C@H](Cc2ccccc2)NC(=O)[C@@H](C)N(C)C(=O)C[C@@H](C(=O)N2CCCCC2)NC(=O)[C@H](COC(C)(C)C)NC1=O [DP-120] ([dNMeA]F[NMeL]TG[NMeF][NMeL]LS(tBu)D-Piperidide; lactam N-10) | 50 | 84 |  |  |
| CC(C)C[C@@H]1NC(=O)[C@H](CC(C)C)N(C)C(=O)[C@H](C(C)C)NC(=O)[C@H](CC(C)C)N(C)C(=O)CN(C)C(=O)[C@H](CC(C)C)NC(=O)[C@H](CO)N(C)C(=O)[C@H](CC(C)C)N(C)C(=O)[C@H](CC(C)C)N(C)C(=O)C[C@H](C)NC(=O)[C@@H](CC(C)C)NC1=O [DP-642] (cyclo(L[Sar][NMeL]V[NMeL]L[dL][β3hA][NMeL][NMeL][NMeS])) | 32 | 65 |  |  |
| CC[C@H](C)[C@@H]1NC(=O)[C@H](CC(C)C)N(C)C(=O)CN(C)C(=O)[C@H]([C@@H](C)O)NC(=O)[C@H](C)N(C)C(=O)C[C@@H](C(=O)N(C)[C@@H](C)C(=O)N2CCC[C@H]2C(=O)N[C@@H](C)C(=O)N2CCCCC2)NC(=O)[C@H](CC(C)C)N(C)C(=O)[C@H](Cc2ccccc2)N(C)C(=O)[C@H](CC(C)C)N(C)C1=O [DP-661] ([NMeA]T[Sar][NMeL]I[NMeL][NMeF][NMeL]D[NMeA]PA-Piperidide; lactam N-9) | 25 | 17 |  |  |
| CC[C@H](C)[C@@H]1NC(=O)[C@H](C)NC(=O)C[C@@H](C(=O)N2CCCCC2)NC(=O)[C@H](CC(C)C)NC(=O)[C@H](CC(C)C)NC(=O)[C@H](C(C)C)NC(=O)[C@H](C)N(C)C(=O)[C@H](Cc2ccccc2)NC(=O)CNC(=O)[C@H]([C@@H](C)O)NC(=O)[C@H](CC(C)C)N(C)C(=O)[C@@H]2CCCN2C1=O [DP-5] (AIP[NMeL]TGF[NMeA]VLLD-Piperidide; lactam N-12) |  |  | 13 | 68 |
| CC(C)C[C@H]1C(=O)N(C)[C@@H](C(C)C)C(=O)N(C)[C@@H](C)C(=O)N[C@H](C(=O)N2CCCCC2)CC(=O)N(C)CCC(=O)N[C@@H]([C@@H](C)O)C(=O)N[C@@H](C)C(=O)N(C)[C@@H](C)C(=O)N(C)[C@@H](Cc2ccccc2)C(=O)N(C)[C@@H](CC(C)C)C(=O)N[C@@H](Cc2ccccc2)C(=O)N1C [DP-473] ([NMeβAla]TA[NMeA][NMeF][NMeL]F[NMeL][NMeV][NMeA]D-Piperidide; lactam N-11) | 14 | 82 |  |  |
| CC(C)C[C@H]1C(=O)N(C)[C@@H](C(C)C)C(=O)N(C)[C@@H](C)C(=O)N[C@@H](CCCc2ccccc2)C(=O)N(C)[C@@H](C)C(=O)N[C@H](C(=O)N2CCCCC2)CC(=O)N(C)[C@@H](C)C(=O)N[C@@H]([C@@H](C)O)C(=O)N(C)[C@@H](C)C(=O)N[C@@H](C)C(=O)N(C)[C@@H](Cc2ccccc2)C(=O)N1C [DP-735] ([NMeA]T[NMeA]A[NMeF][NMeL][NMeV][NMeA][hhPhe][NMeA]D-Piperidide; lactam N-11) | 21 | 88 |  |  |
| CC[C@H](C)[C@H]1C(=O)N(C)[C@@H](CC(C)C)C(=O)N[C@H](C(=O)N2CCCCC2)CC(=O)N(C)CCCC(=O)N(C)[C@@H](Cc2ccccc2)C(=O)N[C@@H](Cc2ccccc2)C(=O)N2CCC[C@H]2C(=O)N[C@@H](CC(C)C)C(=O)N(C)[C@@H](C(C)C)C(=O)N[C@@H]([C@@H](C)O)C(=O)N(C)CC(=O)N[C@@H](C)C(=O)N1C [DP-225] ([NMeGABA][NMeF]FPL[NMeV]T[Sar]A[NMeI][NMeL]D-Piperidide; lactam N-12) | 16 | 32 |  |  |
| CC[C@H](C)[C@H]1C(=O)N[C@H](C(=O)N2CCCCC2)CC(=O)N[C@H](C(C)C)C(=O)N[C@@H](CC(C)C)C(=O)N(C)[C@@H](Cc2ccccc2)C(=O)N[C@@H]([C@@H](C)O)C(=O)N(C)[C@@H](C)C(=O)N[C@@H](C(C)C)C(=O)N[C@@H](Cc2ccccc2)C(=O)N(C)[C@@H](CC(C)C)C(=O)N[C@@H](CC(C)C)C(=O)NCC(=O)N1C [DP-216] ([dV]L[NMeF]T[NMeA]VF[NMeL]LG[NMeI]D-Piperidide; lactam N-12) | 4.5 | 43 |  |  |
| CC(C)C[C@H]1C(=O)N[C@@H]([C@@H](C)O)C(=O)N[C@@H](C)C(=O)N(C)[C@@H](Cc2ccccc2)C(=O)N[C@H](C(=O)N2CCCCC2)CC(=O)N(C)[C@@H](C)C(=O)N(C)[C@@H](CC(C)C)C(=O)N[C@@H](Cc2ccccc2)C(=O)N1C [DP-700] ([NMeA][NMeL]F[NMeL]TA[NMeF]D-Piperidide; lactam N-8) | 49 | 398 |  |  |
| CC(C)C[C@@H]1NC(=O)[C@H](CC(C)C)N(C)C(=O)[C@H](C)NC(=O)[C@H](C(C)C)N(C)C(=O)CN(C)C(=O)[C@H](Cc2ccccc2)NC(=O)[C@H]([C@@H](C)O)NC(=O)[C@H](CC(C)C)N(C)C(=O)[C@@H](C)N(C)C(=O)C[C@@H](C(=O)N2CCCCC2)NC(=O)[C@H](CC(C)C)N(C)C1=O [DP-418] ([dNMeA][NMeL]TF[Sar][NMeV]A[NMeL]L[NMeL]D-Piperidide; lactam N-11) | 28 | 71 |  |  |
| CC[C@H](C)[C@H]1C(=O)N[C@H](C(=O)N2CCCCC2)CC(=O)N(C)[C@H](C)C(=O)N[C@@H](CC(C)C)C(=O)N(C)[C@@H](Cc2ccccc2)C(=O)N(C)[C@@H](CC(C)C)C(=O)NCC(=O)N(C)[C@@H](C(C)C)C(=O)N(C)[C@@H](Cc2ccccc2)C(=O)N(C)[C@@H](C)C(=O)N[C@@H]([C@@H](C)O)C(=O)N(C)[C@@H](C)C(=O)N1C [DP-94] ([dNMeA]L[NMeF][NMeL]G[NMeV][NMeF][NMeA]T[NMeA][NMeI]D-Piperidide; lactam N-12) |  |  | 28 | 17 |
| CC[C@H](C)[C@@H]1NC(=O)[C@H](Cc2ccccc2)NC(=O)CCCCc2cccc(c2)C[C@@H](C(=O)N2CCCCC2)NC(=O)[C@H](CC(C)C)NC(=O)[C@H](CC(C)C)NC(=O)[C@H](C(C)C)NC(=O)[C@H](C)N(C)C(=O)[C@H](Cc2ccccc2)NC(=O)CNC(=O)[C@H]([C@@H](C)O)NC(=O)[C@H](CC(C)C)NC(=O)[C@@H]2CCCN2C1=O [DP-903] (FIPLTGF[NMeA]VLL[Phe(3-(CH2)4CO)]-Piperidide; lactam N-12) | 0.34 | 26 |  |  |
| CC[C@H](C)[C@@H]1NC(=O)[C@H](Cc2ccccc2)N(C)C(=O)[C@@H](C)NC(=O)C[C@@H](C(=O)N2CCCCC2)NC(=O)[C@H](C(C)C)N(C)C(=O)[C@H](Cc2ccccc2)N(C)C(=O)[C@H](COC(C)(C)C)NC(=O)[C@H](CC(C)C)N(C)C(=O)CN(C)C(=O)[C@H]([C@@H](C)O)NC(=O)[C@H](CC(C)C)N(C)C1=O [DP-110] ([dA][NMeF]I[NMeL]T[Sar][NMeL]S(tBu)[NMeF][NMeV]D-Piperidide; lactam N-11) | 30 | 36 |  |  |
| CC[C@H](C)[C@@H]1NC(=O)[C@H](C)N(C)C(=O)[C@H](CC(C)C)N(C)C(=O)[C@@H](C(C)C)NC(=O)C[C@@H](C(=O)N(C)[C@@H](Cc2ccccc2)C(=O)N[C@@H](C)C(=O)N2CCCCC2)NC(=O)[C@H]([C@@H](C)O)NC(=O)[C@H](CC(C)C)N(C)C(=O)[C@H](Cc2ccccc2)N(C)C(=O)[C@H](CC(C)C)N(C)C(=O)[C@H](Cc2ccccc2)N(C)C1=O [DP-190] ([dV][NMeL][NMeA]I[NMeF][NMeL][NMeF][NMeL]TD[NMeF]A-Piperidide; lactam N-10) | 0.6 | 3 |  |  |
| CC(C)C[C@H]1C(=O)N[C@@H](COC(C)(C)C)C(=O)N[C@H](C(=O)N2CCCCC2)CC(=O)N(C)[C@@H](C)C(=O)N(C)[C@@H](Cc2ccccc2)C(=O)N(C)[C@@H](CC(C)C)C(=O)N[C@@H]([C@@H](C)O)C(=O)N(C)CC(=O)N1C [DP-523] ([NMeA][NMeF][NMeL]T[Sar][NMeL]S(tBu)D-Piperidide; lactam N-8) | 20 | 99 |  |  |
